In paper PMC2225441, “Partial Restoration of Mutant Enzyme Homeostasis in Three Distinct Lysosomal Storage Disease Cell Lines by Altering Calcium Homeostasis” (PLoS Biology, 2008):

Columns and labels:
N370S/84GG GC = test: GC activity in compound heterozygous N370S/84GG GC fibroblasts; assay type: cell-based, human; conditions: 10 μM; 5-d treatment
[1] = target: T1, Cerezyme, a recombinant WT GC protein (Homo sapiens, UniProt P04062, R534H); test: GC activity assay for recombinant WT GC enzyme (Cerezyme); assay type: biochemical; conditions: 0.01–1000 μM
T1 construct: purchased Genzyme
T1 sequence (P04062 40-536 R534H): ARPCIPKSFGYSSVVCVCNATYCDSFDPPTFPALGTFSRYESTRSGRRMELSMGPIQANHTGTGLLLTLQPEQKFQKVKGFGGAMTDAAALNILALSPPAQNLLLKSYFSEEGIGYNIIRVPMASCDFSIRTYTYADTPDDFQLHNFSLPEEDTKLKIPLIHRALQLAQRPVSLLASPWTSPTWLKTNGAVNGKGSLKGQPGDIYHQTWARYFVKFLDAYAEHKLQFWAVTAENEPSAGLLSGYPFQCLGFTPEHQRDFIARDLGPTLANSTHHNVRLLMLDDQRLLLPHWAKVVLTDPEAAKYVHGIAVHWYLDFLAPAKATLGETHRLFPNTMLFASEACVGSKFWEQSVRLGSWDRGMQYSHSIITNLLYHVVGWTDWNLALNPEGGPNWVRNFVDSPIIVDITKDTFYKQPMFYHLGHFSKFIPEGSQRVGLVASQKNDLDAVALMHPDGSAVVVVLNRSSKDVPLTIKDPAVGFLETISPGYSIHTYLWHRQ

L444P GC = test: immunofluorescence colocalization of GC with LAMP2 in L444P GC cells; assay type: cell-based, human; conditions: 10 μM; 14 d
Protocol: Immunofluorescence has been previously described. Cells grown on glass cover slips were washed by PBS and fixed with 3.7% paraformaldehyde in PBS for 15 min. The slips were washed with PBS, quenched with 15 mM glycine in PBS for 10 min, and permeabilized with 0.2% saponin in PBS for 15 min. The antibodies were prepared in PBS in the presence of 0.2% saponin and 5 % goat serum. Cells were incubated for 1 h with primary antibodies (1:100 for mouse monoclonal anti-GC 16B3 [58] (kindly provided by Ernest Beutler, The Scripps Research Institute, La Jolla, CA), or 1:100 for 8E4, and 1:10,000 for rabbit anti-LAMP2 [59] (kindly provided by Michiko Fukuda, The Burnham Institute, La Jolla, CA)), washed with 5 % goat serum in PBS, and then incubated for 1 h with secondary antibodies (Alexa Fluor 488 goat anti-mouse IgG (#A11029) and Alexa Fluor 546 goat anti-rabbit IgG (#A11035)) from Molecular Probes. The cover slips were mounted and sealed. Images were collected using a Bio-Rad (Zeiss) Radiance 2100 Rainbow laser scanning confocal microscope attached to a Nikon TE2000-U microscope. For quantitative colocalization analysis, Z-stacks of each frame were flattened, and PCC was calculated using NIH Image J software. Random frames from each slide were averaged and colocalization differences were analyzed using a two-tailed Student's t-test.

[2] = system: cytoplasmic and ER lumenal chaperones; test: Western blot of chaperones in L444P GC fibroblasts; assay type: cell-based, human; conditions: 10 μM
Protocol: Total cell protein was measured using the Micro BCA assay reagent. Endo H (New England Biolabs #P0703) was used to digest the cell lysates according to the company instructions. The cell lysates containing equal amount of total protein were separated by 10% SDS-PAGE. Western blot analysis was performed with proper antibodies. Mouse monoclonal anti-GC 8E4 [57] was kindly provided by Klaus-Peter Zimmer (Children's Hospital of the University of Münster, Münster, Germany). Mouse monoclonal anti-GC 2E2 was from Novus Biologicals (#H00002629-M01). Antibodies directed against calnexin (#SPA-860), calreticulin (#SPA-601), Hsp40 (#SPA-400), Hsp70 (#SPA-812), and Hsp90 (#SPA-830) were from Stressgen. Antibodies directed against BiP (#SC-13968) and GRP94 (#SC-11402) were from Santa Cruz Biotechnology. Mouse monoclonal anti-β actin AC-15 was from Sigma (#A1978). Secondary antibodies (#31430 for goat anti-mouse and #31460 for goat anti-rabbit) were from Pierce. Bands were visualized using the SuperSignal West Pico Chemiluminescent Substrate (Pierce #34078) or SuperSignal West Femto Maximum Sensitivity Substrate (Pierce #34095).

COc1ccc([C@@H]2Sc3ccccc3N(CCN(C)C)C(=O)[C@@H]2OC(C)=O)cc1 [diltiazem]
N370S/84GG GC activity as % of cellular WT GC activity (N370S/84GG GC): ≈ 36% | inhibition of Cerezyme [1]: lack of inhibition | colocalization of L444P GC with lysosomal marker LAMP2 (L444P GC): colocalized with LAMP2 after diltiazem treatment | protein expression levels of BiP, Hsp40, and Hsp90 ([2]; 7-d treatment): increased protein expression levels | protein expression levels of GRP94, Hsp70, calnexin, and calreticulin ([2]; 4 d and 7 d): not changed significantly
